Test results published in patent US6896895B2, “Carotenoid esters, carotenoid-enriched feeds, and methods of pigmenting foods and foodstuffs” (DSM IP Assets B.V., priority 2000, dated 2005).

Tests used:
[1] = test system: egg yolk; assay: Egg yolk colour: reflectance colorimetry and Roche Yolk Colour Fan; type: in vivo, laying hens (ISA Brown); design: key to Chroma C*ab Value: CIE L*a*b* chroma C* value; key to Color Fan Value / Color Fan Value Value: visual score on Roche Yolk Colour Fan (RYCF, 1993 version); key to Color Fan Value, Pigmentation: − = off color; + = good color; settings: laying hens; for Color Fan Value % of Controls / Chroma C*ab % of Controls / Color Hue h*ab % of Controls / Chroma C*ab Value / Color Fan Value / Color Hue h*ab Value / Color Fan Value Value / Color Fan Value, Pigmentation: egg yolk
Outline: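 ISA Brown laying hens, depleted at least 28 days on low-carotenoid basal diet (<2 mg xanthophylls/kg), fed pigment-supplemented mash ad libitum for three weeks. Pooled yolks of three to six eggs scored with Roche Yolk Colour Fan and measured by reflectance colorimetry (D65, 8°) as CIE L*a*b*, h*, C*; values average four yolk pools.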

[2] = Carotenoid ester content and deposition rate in egg yolk of laying hens (HPLC); type: in vivo, laying hens (ISA Brown); design: Deposition Rate Value: unit not given here; settings: for Deposition Rate Target Values % of Controls / Ethyl β-apo-8′-carotenoate Equivalents % of Controls / Deposition Rate % of Controls / Deposition Rate Target Values / Ethyl β-apo-8′-carotenoate Equivalents / Deposition Rate Value: egg yolk; for Deposition Rate % of Controls / Deposition Rate Value: Table 9
Outline: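 Hens were first depleted for at least 28 days on a low-carotenoid basal diet (<2 mg total xanthophylls/kg, also the control diet), then fed mash supplemented with the pigments ad libitum for three weeks. Pooled homogenised yolk was extracted with ethanol/n-hexane and analysed by HPLC, calibrated with all-E ethyl β-apo-8′-carotenoate. Response factors were adjusted by molecular weight, and Z-isomers were corrected by a factor of 1.4.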

[3] = trial H-12/99, 1.0 mg/kg feed, Table 9
[4] = trial H-12/99, 2.0 mg/kg feed, Table 9
[5] = trial H-12/99, 4.0 mg/kg feed, Table 9
[6] = trial H-12/99, 8.0 mg/kg feed, Table 9
[7] = trial H-19/98, 4.0 mg/kg feed, Table 9
[8] = trial H-25/98, 5.0 mg/kg feed, Table 9

CC1=C(/C=C/C(C)=C/C=C/C(C)=C/C=C/C=C(C)/C=C/C=C(\C)C(=O)OC(C)C)C(C)(C)CCC1 [compound (17), isopropyl beta-apo-8′-carotenoate]
Color Fan Value % of Controls ([1]; average over doses, Table 7): 105% | Chroma C*ab % of Controls ([1]; average over doses, Table 9): 98% | Color Fan Value % of Controls ([1]; average over doses, Table 9): 105% | Color Hue h*ab % of Controls ([1]; average over doses, Table 9): 101% | Chroma C*ab % of Controls ([1]; trial H-12/99, 1.0 mg/kg feed): 98% | Chroma C*ab Value ([1]; trial H-12/99, 1.0 mg/kg feed): 39 | Color Fan Value ([1]; trial H-12/99, 1.0 mg/kg feed): 3 | Color Fan Value % of Controls ([1]; trial H-12/99, 1.0 mg/kg feed): 66% | Color Hue h*ab % of Controls ([1]; trial H-12/99, 1.0 mg/kg feed): 101% | Color Hue h*ab Value ([1]; trial H-12/99, 1.0 mg/kg feed): 95 | Color Fan Value % of Controls [1, 3]: 66% | Color Fan Value Value [1, 3]: 3 | Chroma C*ab % of Controls ([1]; trial H-12/99, 2.0 mg/kg feed): 100% | Chroma C*ab Value ([1]; trial H-12/99, 2.0 mg/kg feed): 45 | Color Fan Value ([1]; trial H-12/99, 2.0 mg/kg feed): 6 | Color Fan Value % of Controls ([1]; trial H-12/99, 2.0 mg/kg feed): 104% | Color Fan Value, Pigmentation ([1]; trial H-12/99, 2.0 mg/kg feed): + | Color Hue h*ab % of Controls ([1]; trial H-12/99, 2.0 mg/kg feed): 101% | Color Hue h*ab Value ([1]; trial H-12/99, 2.0 mg/kg feed): 93 | Color Fan Value % of Controls [1, 4]: 104% | Color Fan Value Value [1, 4]: 6 | Color Fan Value, Pigmentation [1, 4]: + | Chroma C*ab % of Controls ([1]; trial H-12/99, 4.0 mg/kg feed): 98% | Chroma C*ab Value ([1]; trial H-12/99, 4.0 mg/kg feed): 51 | Color Fan Value ([1]; trial H-12/99, 4.0 mg/kg feed): 6 | Color Fan Value % of Controls ([1]; trial H-12/99, 4.0 mg/kg feed): 97% | Color Fan Value, Pigmentation ([1]; trial H-12/99, 4.0 mg/kg feed): + | Color Hue h*ab % of Controls ([1]; trial H-12/99, 4.0 mg/kg feed): 102% | Color Hue h*ab Value ([1]; trial H-12/99, 4.0 mg/kg feed): 90 | Color Fan Value % of Controls [1, 5]: 97% | Color Fan Value Value [1, 5]: 6 | Color Fan Value, Pigmentation [1, 5]: + | Chroma C*ab % of Controls ([1]; trial H-12/99, 8.0 mg/kg feed): 96% | Chroma C*ab Value ([1]; trial H-12/99, 8.0 mg/kg feed): 54 | Color Fan Value ([1]; trial H-12/99, 8.0 mg/kg feed): 9 | Color Fan Value % of Controls ([1]; trial H-12/99, 8.0 mg/kg feed): 156% | Color Fan Value, Pigmentation ([1]; trial H-12/99, 8.0 mg/kg feed): + | Color Hue h*ab % of Controls ([1]; trial H-12/99, 8.0 mg/kg feed): 100% | Color Hue h*ab Value ([1]; trial H-12/99, 8.0 mg/kg feed): 85 | Color Fan Value % of Controls [1, 6]: 156% | Color Fan Value Value [1, 6]: 9 | Color Fan Value, Pigmentation [1, 6]: + | Chroma C*ab % of Controls ([1]; trial H-19/98, 4.0 mg/kg feed): 97% | Chroma C*ab Value ([1]; trial H-19/98, 4.0 mg/kg feed): 51 | Color Fan Value ([1]; trial H-19/98, 4.0 mg/kg feed): 5 | Color Fan Value % of Controls ([1]; trial H-19/98, 4.0 mg/kg feed): 79% | Color Fan Value, Pigmentation ([1]; trial H-19/98, 4.0 mg/kg feed): + | Color Hue h*ab % of Controls ([1]; trial H-19/98, 4.0 mg/kg feed): 106% | Color Hue h*ab Value ([1]; trial H-19/98, 4.0 mg/kg feed): 89 | Color Fan Value % of Controls [1, 7]: 79% | Color Fan Value Value [1, 7]: 5 | Color Fan Value, Pigmentation [1, 7]: + | Chroma C*ab % of Controls ([1]; trial H-25/98, 5.0 mg/kg feed): 99% | Chroma C*ab Value ([1]; trial H-25/98, 5.0 mg/kg feed): 52 | Color Hue h*ab % of Controls ([1]; trial H-25/98, 5.0 mg/kg feed): 98% | Color Hue h*ab Value ([1]; trial H-25/98, 5.0 mg/kg feed): 86 | Color Fan Value % of Controls [1, 8]: 130% | Color Fan Value Value [1, 8]: 9 | Color Fan Value ([1]; trial H-25/99, 5.0 mg/kg feed): 9 | Color Fan Value % of Controls ([1]; trial H-25/99, 5.0 mg/kg feed): 130% | quality in terms of deposition rate and color intensity (chroma C*a*b*) in the egg yolk ([1]; compared to the control): comparable quality | Deposition Rate Target Values % of Controls ([2]; average over doses, Table 7): 101% | Ethyl β-apo-8′-carotenoate Equivalents % of Controls ([2]; average over doses, Table 7): 91% | Deposition Rate % of Controls ([2]; average over doses): 101% | Deposition Rate Target Values ([2]; trial H-12/99, 1.0 mg/kg feed): 44% | Deposition Rate Target Values % of Controls ([2]; trial H-12/99, 1.0 mg/kg feed): 97% | Ethyl β-apo-8′-carotenoate Equivalents ([2]; trial H-12/99, 1.0 mg/kg feed): 2.6 mg/kg | Ethyl β-apo-8′-carotenoate Equivalents % of Controls ([2]; trial H-12/99, 1.0 mg/kg feed): 97% | Deposition Rate % of Controls ([2]; trial H-12/99, 1.0 mg/kg feed): 97% | Deposition Rate Value ([2]; trial H-12/99, 1.0 mg/kg feed): 44 | Deposition Rate Target Values ([2]; trial H-12/99, 2.0 mg/kg feed): 44% | Deposition Rate Target Values % of Controls ([2]; trial H-12/99, 2.0 mg/kg feed): 100% | Ethyl β-apo-8′-carotenoate Equivalents ([2]; trial H-12/99, 2.0 mg/kg feed): 5.2 mg/kg | Ethyl β-apo-8′-carotenoate Equivalents % of Controls ([2]; trial H-12/99, 2.0 mg/kg feed): 94% | Deposition Rate % of Controls ([2]; trial H-12/99, 2.0 mg/kg feed): 100% | Deposition Rate Value ([2]; trial H-12/99, 2.0 mg/kg feed): 44 | Deposition Rate Target Values ([2]; trial H-12/99, 4.0 mg/kg feed): 42% | Deposition Rate Target Values % of Controls ([2]; trial H-12/99, 4.0 mg/kg feed): 85% | Ethyl β-apo-8′-carotenoate Equivalents ([2]; trial H-12/99, 4.0 mg/kg feed): 9.6 mg/kg | Ethyl β-apo-8′-carotenoate Equivalents % of Controls ([2]; trial H-12/99, 4.0 mg/kg feed): 81% | Deposition Rate % of Controls ([2]; trial H-12/99, 4.0 mg/kg feed): 85% | Deposition Rate Value ([2]; trial H-12/99, 4.0 mg/kg feed): 42 | Deposition Rate Target Values ([2]; trial H-12/99, 8.0 mg/kg feed): 49% | Deposition Rate Target Values % of Controls ([2]; trial H-12/99, 8.0 mg/kg feed): 104% | Ethyl β-apo-8′-carotenoate Equivalents ([2]; trial H-12/99, 8.0 mg/kg feed): 23.1 mg/kg | Ethyl β-apo-8′-carotenoate Equivalents % of Controls ([2]; trial H-12/99, 8.0 mg/kg feed): 96% | Deposition Rate % of Controls ([2]; trial H-12/99, 8.0 mg/kg feed): 104% | Deposition Rate Value ([2]; trial H-12/99, 8.0 mg/kg feed): 49 | Deposition Rate Target Values ([2]; trial H-19/98, 4.0 mg/kg feed): 54% | Deposition Rate Target Values % of Controls ([2]; trial H-19/98, 4.0 mg/kg feed): 117% | Ethyl β-apo-8′-carotenoate Equivalents ([2]; trial H-19/98, 4.0 mg/kg feed): 11.1 mg/kg | Ethyl β-apo-8′-carotenoate Equivalents % of Controls ([2]; trial H-19/98, 4.0 mg/kg feed): 95% | Deposition Rate % of Controls ([2]; trial H-19/98, 4.0 mg/kg feed): 117% | Deposition Rate Value ([2]; trial H-19/98, 4.0 mg/kg feed): 54 | Deposition Rate % of Controls ([2]; trial H-25/98, 5.0 mg/kg feed): 106% | Deposition Rate Value ([2]; trial H-25/98, 5.0 mg/kg feed): 50 | Deposition Rate Target Values ([2]; trial H-25/99, 5.0 mg/kg feed): 50% | Deposition Rate Target Values % of Controls ([2]; trial H-25/99, 5.0 mg/kg feed): 100% | Ethyl β-apo-8′-carotenoate Equivalents ([2]; trial H-25/99, 5.0 mg/kg feed): 13.3 mg/kg | Ethyl β-apo-8′-carotenoate Equivalents % of Controls ([2]; trial H-25/99, 5.0 mg/kg feed): 84% | concentration in the egg yolk ([2]; versus the control): in the range of the control
